Laboratory results taken from ChEMBL document CHEMBL1201861, “Genomics of Drug Sensitity in Cancer screening data, Wellcome Trust Sanger Institute”.

What was measured:
[1] = system: CPC-N; assay: cells; format: functional, cell-based, Homo sapiens; conditions: Homo sapiens, CPC-N;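 note: growth inhibition of CPC-N cells, with a cell viability assay as the readout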
Description: SANGER: Inhibition of human CPC-N cell growth in a cell viability assay.

[2] = system: Ca9-22; assay: cells; format: functional, cell-based; conditions: Homo sapiens;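 note: growth inhibition of Ca9-22 cells, read out with a cell viability assay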
Description: SANGER: Inhibition of human Ca9-22 cell growth in a cell viability assay.

[3] = system: CaR-1; assay: cells; format: functional, cell-based; conditions: Homo sapiens;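 note: growth inhibition of human CaR-1 cancer cells, read out with a cell viability assay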
Description: SANGER: Inhibition of human CaR-1 cell growth in a cell viability assay.

[4] = system: Capan-2; assay: cells; format: functional, cell-based; conditions: Homo sapiens;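 note: Capan-2 cell growth inhibition, read out with a viability assay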
Description: SANGER: Inhibition of human Capan-2 cell growth in a cell viability assay.

[5] = system: Daoy; assay: cells; format: functional, cell-based; conditions: Homo sapiens;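 note: daoy cell growth inhibition, read out as cell viability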
Description: SANGER: Inhibition of human Daoy cell growth in a cell viability assay.

[6] = system: EB-3; assay: cells; format: functional, cell-based, Homo sapiens; conditions: Homo sapiens, EB-3;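 note: human EB-3 cells, growth inhibition read out via a cell viability assay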
Description: SANGER: Inhibition of human EB-3 cell growth in a cell viability assay.

[7] = system: H4; assay: cells; format: functional, cell-based; conditions: Homo sapiens
Description: SANGER: Inhibition of human H4 cell growth in a cell viability assay.

[8] = system: HCC1806; assay: cells; format: functional, cell-based; conditions: Homo sapiens;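 note: growth inhibition of the cancer cell line, determined with a cell viability assay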
Description: SANGER: Inhibition of human HCC1806 cell growth in a cell viability assay.

[9] = system: HCC38; assay: cells; format: functional, cell-based; conditions: Homo sapiens;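 note: cell viability assay on the human HCC38 cell line, with IC50 marking the concentration that inhibits cell growth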
Description: SANGER: Inhibition of human HCC38 cell growth in a cell viability assay.

[10] = system: HCC70; assay: cells; format: functional, cell-based; conditions: Homo sapiens;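 note: cell viability assay measuring how strongly the compound suppresses proliferation of HCC70 cells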
Description: SANGER: Inhibition of human HCC70 cell growth in a cell viability assay.

[11] = system: HEC-1; assay: cells; format: functional, cell-based; conditions: Homo sapiens;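 note: growth inhibition of the cell line, read out with a cell viability assay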
Description: SANGER: Inhibition of human HEC-1 cell growth in a cell viability assay.

[12] = system: HOP-92; assay: cells; format: functional, cell-based; conditions: Homo sapiens;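 note: cell viability readout, with IC50 reflecting inhibition of HOP-92 cell growth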
Description: SANGER: Inhibition of human HOP-92 cell growth in a cell viability assay.

[13] = system: HOS; assay: cells; format: functional, cell-based; conditions: Homo sapiens;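 note: growth inhibition of human HOS cells, read out with a cell viability assay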
Description: SANGER: Inhibition of human HOS cell growth in a cell viability assay.

[14] = system: HT-1376; assay: cells; format: functional, cell-based; conditions: Homo sapiens
Description: SANGER: Inhibition of human HT-1376 cell growth in a cell viability assay.

[15] = system: HT-3; assay: cells; format: functional, cell-based; conditions: Homo sapiens;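 note: growth inhibition measured with a cell viability readout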
Description: SANGER: Inhibition of human HT-3 cell growth in a cell viability assay.

[16] = system: HuO-3N1; assay: cells; format: functional, cell-based; conditions: Homo sapiens;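 note: cell viability readout used to measure how strongly compounds suppress proliferation of human HuO-3N1 cells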
Description: SANGER: Inhibition of human HuO-3N1 cell growth in a cell viability assay.

[17] = system: IMR-5; assay: cells; format: functional, cell-based, Homo sapiens; conditions: Homo sapiens, IMR-5; read-out: IC50;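 note: growth inhibition of human IMR-5 cells, read out with a cell viability assay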
Description: SANGER: Inhibition of human IMR-5 cell growth in a cell viability assay.

[18] = system: JIYOYE; assay: cells; format: functional, cell-based, Homo sapiens; conditions: Homo sapiens, JIYOYE
Description: SANGER: Inhibition of human JiyoyeP-2003 cell growth in a cell viability assay.

[19] = system: KARPAS-422; assay: cells; format: functional, cell-based, Homo sapiens; conditions: Homo sapiens, KARPAS-422
Description: SANGER: Inhibition of human KARPAS-422 cell growth in a cell viability assay.

[20] = system: KP-N-YN; assay: cells; format: functional, cell-based; conditions: Homo sapiens;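 note: growth inhibition of KP-N-YN cells, read out with a cell viability assay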
Description: SANGER: Inhibition of human KP-N-YN cell growth in a cell viability assay.

[21] = system: KU-19-19; assay: cells; format: functional, cell-based; conditions: Homo sapiens
Description: SANGER: Inhibition of human KU-19-19 cell growth in a cell viability assay.

[22] = system: KYSE-70 cell line; assay: cells; format: functional, cell-based; conditions: Homo sapiens;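 note: cell viability assay read-out, with IC50 expressing suppression of KYSE-70 cell growth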
Description: SANGER: Inhibition of human KYSE-70 cell growth in a cell viability assay.

[23] = system: LB647-SCLC; assay: cells; format: functional, cell-based, Homo sapiens; conditions: Homo sapiens, LB647-SCLC;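 note: cell growth inhibition, read out by a viability assay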
Description: SANGER: Inhibition of human LB647-SCLC cell growth in a cell viability assay.

[24] = system: LC4-1; assay: cells; format: functional, cell-based, Homo sapiens; conditions: Homo sapiens, LC4-1;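 note: growth inhibition of LC4-1 cells, read out with a cell viability assay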
Description: SANGER: Inhibition of human LC4-1 cell growth in a cell viability assay.

[25] = system: LK-2; assay: cells; format: functional, cell-based; conditions: Homo sapiens;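 note: growth inhibition of LK-2 cells, read out with a viability assay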
Description: SANGER: Inhibition of human LK-2 cell growth in a cell viability assay.

[26] = system: M059J; assay: cells; format: functional, cell-based; conditions: Homo sapiens;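 note: growth inhibition of M059J cells, read out with a cell viability assay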
Description: SANGER: Inhibition of human M059J cell growth in a cell viability assay.

[27] = system: MDA-MB-453; assay: cells; format: functional, cell-based; conditions: Homo sapiens
Description: SANGER: Inhibition of human MDA-MB-453 cell growth in a cell viability assay.

[28] = system: NB1; assay: cells; format: functional, cell-based, Homo sapiens; conditions: Homo sapiens, NB1
Description: SANGER: Inhibition of human NB1 cell growth in a cell viability assay.

[29] = system: NCI-H1436; assay: cells; format: functional, cell-based, Homo sapiens; conditions: Homo sapiens, NCI-H1436;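 note: growth suppression of human NCI-H1436 cells, determined with a cell viability readout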
Description: SANGER: Inhibition of human NCI-H1436 cell growth in a cell viability assay.

[30] = system: NCI-H1694; assay: cells; format: functional, cell-based, Homo sapiens; conditions: Homo sapiens, NCI-H1694;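 note: cell viability assay measuring inhibition of growth in human NCI-H1694 cells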
Description: SANGER: Inhibition of human NCI-H1694 cell growth in a cell viability assay.

[31] = system: NCI-H2052; assay: cells; format: functional, cell-based; conditions: Homo sapiens;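 note: growth inhibition of NCI-H2052 cells, read out with a cell viability assay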
Description: SANGER: Inhibition of human NCI-H2052 cell growth in a cell viability assay.

[32] = system: NCI-H2170; assay: cells; format: functional, cell-based; conditions: Homo sapiens;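 note: cell viability assay measuring growth inhibition of human NCI-H2170 cancer cells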
Description: SANGER: Inhibition of human NCI-H2170 cell growth in a cell viability assay.

[33] = system: NCI-H2228; assay: cells; format: functional, cell-based; conditions: Homo sapiens;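 note: growth inhibition of human NCI-H2228 cells, read out by a cell viability assay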
Description: SANGER: Inhibition of human NCI-H2228 cell growth in a cell viability assay.

[34] = system: NCI-H716; assay: cells; format: functional, cell-based, Homo sapiens; conditions: Homo sapiens, NCI-H716;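 note: growth inhibition of human NCI-H716 cells, measured by a cell viability assay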
Description: SANGER: Inhibition of human NCI-H716 cell growth in a cell viability assay.

[35] = system: NCI-H748; assay: cells; format: functional, cell-based, Homo sapiens; conditions: Homo sapiens, NCI-H748;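 note: growth inhibition of NCI-H748 cells, measured by a cell viability assay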
Description: SANGER: Inhibition of human NCI-H748 cell growth in a cell viability assay.

[36] = system: PC-3; assay: cells; format: functional, cell-based; conditions: Homo sapiens;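 note: cell viability assay measuring growth inhibition of PC-3 cells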
Description: SANGER: Inhibition of human PC-3 cell growth in a cell viability assay.

[37] = system: PFSK-1; assay: cells; format: functional, cell-based; conditions: Homo sapiens;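 note: cell viability assay measuring how strongly compounds suppress growth of human PFSK-1 cells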
Description: SANGER: Inhibition of human PFSK-1 cell growth in a cell viability assay.

[38] = system: REH; assay: cells; format: functional, cell-based, Homo sapiens; conditions: Homo sapiens, REH;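 note: growth inhibition of REH cells determined with a cell viability read-out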
Description: SANGER: Inhibition of human REH cell growth in a cell viability assay.

[39] = system: RPMI-6666; assay: cells; format: functional, cell-based, Homo sapiens; conditions: Homo sapiens, RPMI-6666
Description: SANGER: Inhibition of human RPMI-6666 cell growth in a cell viability assay.

[40] = system: RT-112; assay: cells; format: functional, cell-based; conditions: Homo sapiens
Description: SANGER: Inhibition of human RT-112 cell growth in a cell viability assay.

[41] = system: SCC-4; assay: cells; format: functional, cell-based; conditions: Homo sapiens;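 note: growth inhibition of human SCC-4 cells, read out as cell viability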
Description: SANGER: Inhibition of human SCC-4 cell growth in a cell viability assay.

[42] = system: SK-MES-1; assay: cells; format: functional, cell-based; conditions: Homo sapiens;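 note: growth inhibition of human SK-MES-1 cells, read out with a cell viability assay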
Description: SANGER: Inhibition of human SK-MES-1 cell growth in a cell viability assay.

[43] = system: SU-DHL-1; assay: SANGER: Inhibition of human SU-DHL-1 cell growth in a cell viability assay.; format: functional, cell-based; conditions: Homo sapiens, SU-DHL-1
[44] = system: SW1417; assay: cells; format: functional, cell-based; conditions: Homo sapiens;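 note: growth inhibition of human SW1417 cells, read out with a cell viability assay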
Description: SANGER: Inhibition of human SW1417 cell growth in a cell viability assay.

[45] = system: T84; assay: cells; format: functional, cell-based; conditions: Homo sapiens;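 note: growth inhibition measured with a cell viability readout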
Description: SANGER: Inhibition of human T84 cell growth in a cell viability assay.

[46] = system: T98G; assay: cells; format: functional, cell-based; conditions: Homo sapiens;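 note: growth inhibition of T98G cells, read out by a cell viability assay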
Description: SANGER: Inhibition of human T98G cell growth in a cell viability assay.

[47] = system: A2058; assay: cells; format: functional, cell-based; conditions: Homo sapiens;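 note: reduction of A2058 cell growth, read out with a viability assay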
Description: SANGER: Inhibition of human A2058 cell growth in a cell viability assay.

[48] = system: ACHN; assay: cells; format: functional, cell-based; conditions: Homo sapiens;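 note: cell viability read-out used to gauge how strongly growth of human ACHN cells is suppressed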
Description: SANGER: Inhibition of human ACHN cell growth in a cell viability assay.

[49] = system: BC1 cell line; assay: SANGER: Inhibition of human BC-1 cell growth in a cell viability assay.; format: functional, cell-based; conditions: Homo sapiens, BC1
[50] = system: BC-3; assay: cells; format: functional, cell-based, Homo sapiens; conditions: Homo sapiens, BC-3;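 note: cell viability assay measuring growth inhibition of human BC-3 cells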
Description: SANGER: Inhibition of human BC-3 cell growth in a cell viability assay.

[51] = system: BFTC-909; assay: cells; format: functional, cell-based; conditions: Homo sapiens
Description: SANGER: Inhibition of human BFTC-909 cell growth in a cell viability assay.

[52] = system: BHY; assay: cells; format: functional, cell-based; conditions: Homo sapiens;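 note: cell growth inhibition read out by a viability assay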
Description: SANGER: Inhibition of human BHY cell growth in a cell viability assay.

[53] = system: CAKI-1; assay: cells; format: functional, cell-based; conditions: Homo sapiens;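 note: growth inhibition of CAKI-1 cells, measured by a cell viability assay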
Description: SANGER: Inhibition of human CAKI-1 cell growth in a cell viability assay.

[54] = system: TYK-nu; assay: cells; format: functional, cell-based; conditions: Homo sapiens;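 note: growth inhibition of human TYK-nu cells, read out by a cell viability assay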
Description: SANGER: Inhibition of human TYK-nu cell growth in a cell viability assay.

[55] = system: CESS; assay: SANGER: Inhibition of human CESS cell growth in a cell viability assay.; format: functional, cell-based; conditions: Homo sapiens, CESS
[56] = system: NB17; assay: cells; format: functional, cell-based, Homo sapiens; conditions: Homo sapiens, NB17;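 note: growth inhibition of NB17 cells, read out with a cell viability assay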
Description: SANGER: Inhibition of human NB17 cell growth in a cell viability assay.

[57] = system: NB7; assay: cells; format: functional, cell-based, Homo sapiens; conditions: Homo sapiens, NB7;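 note: growth inhibition of NB7 cells, read out with a cell viability assay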
Description: SANGER: Inhibition of human NB7 cell growth in a cell viability assay.

With `CCCCCCCCCCCC1=C(O)C(=O)C=C(O)C1=O` [EMBELIN] the IC50 [1] was > 32 µM, the IC50 [2] was 12.4 µM and the IC50 [3] was > 32 µM. For the same compound, the IC50 [4] was 18.3 µM, the IC50 [5] was 5.46 µM and the IC50 [6] was 20.8 µM. The IC50 [7] was 4.13 µM, the IC50 [8] was > 32 µM and the IC50 [9] was 17.9 µM. For the same compound, the IC50 [10] was > 32 µM, the IC50 [11] was 13 µM and the IC50 [12] was 7.88 µM. For the same compound, the IC50 [13] was 15.3 µM, the IC50 [14] was 5.9 µM and the IC50 [15] was 27.6 µM. The IC50 [16] was > 32 µM, the IC50 [17] was > 32 µM and the IC50 [18] was 6.94 µM. The IC50 [19] was 20.7 µM, the IC50 [20] was > 32 µM and the IC50 [21] was > 32 µM. For the same compound, the IC50 [22] was 15.1 µM, the IC50 [23] was > 32 µM and the IC50 [24] was > 32 µM. For the same compound, the IC50 [25] was 18 µM, the IC50 [26] was 13.1 µM and the IC50 [27] was > 32 µM. For the same compound, the IC50 [28] was > 32 µM, the IC50 [29] was > 32 µM and the IC50 [30] was > 32 µM. The IC50 [31] was 8.53 µM, the IC50 [32] was 12.1 µM and the IC50 [33] was > 32 µM. For the same compound, the IC50 [34] was > 32 µM, the IC50 [35] was > 32 µM and the IC50 [36] was 14.8 µM. It also gave an IC50 [37] of 14 µM, an IC50 [38] of 8.62 µM and an IC50 [39] of 8.67 µM. For the same compound, the IC50 [40] was 12.6 µM, the IC50 [41] was 17.4 µM and the IC50 [42] was 5.01 µM. For the same compound, the IC50 [43] was > 32 µM, the IC50 [44] was > 32 µM and the IC50 [45] was 9.87 µM. For the same compound, the IC50 [46] was 19.6 µM, the IC50 [47] was 2.32 µM and the IC50 [48] was > 32 µM. For the same compound, the IC50 [49] was 5.03 µM, the IC50 [50] was > 32 µM and the IC50 [51] was > 32 µM. For the same compound, the IC50 [52] was 6.03 µM, the IC50 [53] was > 32 µM and the IC50 [54] was 22.6 µM. The IC50 [55] was 6.24 µM.
For `Cc1ccc(-n2nc(C(C)(C)C)cc2NC(=O)Nc2ccc(OCCN3CCOCC3)c3ccccc23)cc1` [DORAMAPIMOD], the IC50 [2] was > 10 µM, the IC50 [3] was > 10 µM and the IC50 [4] was > 10 µM. For the same compound, the IC50 [5] was > 10 µM, the IC50 [7] was > 10 µM and the IC50 [8] was > 10 µM. The IC50 [9] was > 10 µM, the IC50 [10] was > 10 µM and the IC50 [11] was > 10 µM. For the same compound, the IC50 [12] was > 10 µM, the IC50 [13] was > 10 µM and the IC50 [14] was > 10 µM. The IC50 [15] was > 10 µM, the IC50 [16] was > 10 µM and the IC50 [20] was 8.2 µM. The IC50 [21] was > 10 µM, the IC50 [22] was > 10 µM and the IC50 [25] was > 10 µM. For the same compound, the IC50 [26] was > 10 µM, the IC50 [27] was > 10 µM and the IC50 [56] was > 10 µM. For the same compound, the IC50 [57] was > 10 µM, the IC50 [31] was > 10 µM and the IC50 [32] was > 10 µM. For the same compound, the IC50 [33] was > 10 µM, the IC50 [36] was > 10 µM and the IC50 [37] was > 10 µM. For the same compound, the IC50 [40] was > 10 µM, the IC50 [41] was > 10 µM and the IC50 [42] was > 10 µM. For the same compound, the IC50 [44] was > 10 µM, the IC50 [45] was > 10 µM and the IC50 [46] was > 10 µM. The IC50 [47] was > 10 µM, the IC50 [48] was > 10 µM and the IC50 [51] was > 10 µM. The IC50 [52] was > 10 µM, the IC50 [53] was > 10 µM and the IC50 [54] was > 10 µM.
For `NC(=O)c1ccc(N(C(N)=O)c2c(F)cccc2F)nc1-c1ccc(F)cc1F` [VX-702], the IC50 [2] was > 2 µM, the IC50 [3] was > 2 µM and the IC50 [4] was > 2 µM. The IC50 [5] was > 2 µM, the IC50 [7] was > 2 µM and the IC50 [8] was > 2 µM. For the same compound, the IC50 [9] was > 2 µM, the IC50 [10] was > 2 µM and the IC50 [11] was > 2 µM. The IC50 [12] was > 2 µM, the IC50 [13] was > 2 µM and the IC50 [14] was > 2 µM. For the same compound, the IC50 [15] was > 2 µM, the IC50 [16] was > 2 µM and the IC50 [20] was > 2 µM. For the same compound, the IC50 [21] was > 2 µM, the IC50 [22] was > 2 µM and the IC50 [25] was > 2 µM. For the same compound, the IC50 [26] was > 2 µM, the IC50 [27] was > 2 µM and the IC50 [56] was > 2 µM. The IC50 [57] was > 2 µM, the IC50 [31] was > 2 µM and the IC50 [32] was > 2 µM. The IC50 [33] was > 2 µM, the IC50 [36] was > 2 µM and the IC50 [37] was > 2 µM. The IC50 [40] was > 2 µM, the IC50 [41] was > 2 µM and the IC50 [42] was > 2 µM. The IC50 [44] was > 2 µM, the IC50 [45] was > 2 µM and the IC50 [46] was > 2 µM. The IC50 [47] was > 2 µM, the IC50 [48] was > 2 µM and the IC50 [51] was > 2 µM. The IC50 [52] was > 2 µM, the IC50 [53] was > 2 µM and the IC50 [54] was > 2 µM.
